Data set [1] in a line: Kinetics of acid-catalysed rearrangement of 2 to 4 in aqueous HCl (HPLC). To be noted: for half-life at 50 µg/mL: 6 M aqueous HCl, Half life of rearrangement, initial concentration 50 µg/mL, n = 3.
Description: We propose that this reaction proceeds via lactam hydrolysis and subsequent condensation of the resulting primary amine with the exocyclic carbonyl group (Fig. 4B).
The conversion is calculated normalized to the maximum area under the curve of 4. […] B: Reaction scheme showing the proposed reactive intermediate. Oxygens in the carboxylic acid group are indistinguisable, but for reasons of clarity only one of them is coloured like the hydrolyzing water.
The activation energy (EA) was determined from linear regression based on the linearized Arrhenius equation (ln(k) = − EA/(RT) + ln(A)).
Data set [2] is described as follows: Thermal stability of pure crystalline solid. Format: physicochemical. To be noted: 100 °C for 12 h.
Data set [3] has as its system CHO-K1 cells. Description: MTT cytotoxicity assay toward CHO cell line. To be noted: 72 h exposure, whole concentration range, up to 1 mM. For orientation: Tetrazolium assays rely on reduction of a dye to a coloured formazan, in cell work by metabolically active cells.
Description: Cytotoxicity toward CHO Cell Line
Cytotoxicity was determined by means of a colorimetric microculture assay (MTT assay). For this purpose, CHO-K1
cells were harvested from culture flasks by trypsinization and seeded into 96-well microculture plates (Corning) in
densities of 4,000 viable cells/well. After a 24 h preincubation, cells were exposed to dilutions of the test compounds
in complete culture medium (200 µL/well) for 72 h. At the end of the exposure period, the compound solutions were
and MTT solution (MTT reagent in PBS, 20 µL/well, 5 mg/mL). After incubation for 4 h, the medium was removed, and
the formazan product was solved in DMSO (150 µL/well). Optical densities at 490 nm were measured with a microplate
reader (BioTek Synergy HTX multi-mode reader) using a reference wavelength of 690 nm to correct for unspecific
absorption. The quantity of viable cells was expressed in terms of T/C values by comparison to untreated controls.
Evaluations were based on means from at least three independent experiments, each comprising triplicates for each
Data set [4] can be described thus: Rearrangement in simulated gastric fluid or equimolar aqueous HCl (HPLC). Format: physicochemical. The following applies: 0.08 M aq. HCl, 1 g/L NaCl and 1.6 g/L pepsin, 6 h at 37 °C.
Data set [5] addresses T1, human mAChR M3 (Homo sapiens, UniProt P20309).
T1 construct: host or cells: CHO-K1 (stably transfected), membrane preparation
Description: Competitive [3H]NMS radioligand binding assay on CHO cell membranes, mAChR M3. The following applies: CHO cell membranes with human receptor, 1.5 h at 20 °C, this work. The protocol:
(§1) Filter bound decay rate is normalized to 1 for binding in absence of competitor and to 0 for nonspecific binding.
(§2) Membrane preparations of mAChR M1, M2, M3, M4 or M5 receptors were produced from the respective cell line as follows. The medium of a confluent T175 cell culture flask was poured off and the cell layer was washed with ice-cold PBS. Cells were scraped off and suspended in 2 mL 10 mM Tris/HCl, 1 mM EDTA buffer (pH 7.4) and 200 µL protease inhibitor cocktail. A cell homogenate obtained from passing the cell suspension through a G29 needle was centrifuged (10 min, 1,000 g, 4 °C).
(§3) A competitive radioligand binding assay using [^3H]NMS and variable concentrations of test compounds was performed in assay buffer (50 mM Tris/HCl, 10 mM MgCl2, 1 mM EDTA). Polypropylene tubes were filled with 5 µL aqueous solution of the test compounds, 50 µL radioligand solution in assay buffer and 445 µL membrane suspension in assay buffer (diluted approx. 1:100), shaken and incubated for 1.5 h at 20 °C. Nonspecific binding of the radioligand was determined by using 5 µL of a 1 µM scopolamine hydrobromide solution. The concentration of the radioligand solution was chosen as 2 nM, 3 nM, 8 nM, 2 nM and 10 nM for M1-M5, respectively. […] Specific binding was calculated as total binding minus nonspecific binding. To delineate the IC50 value, specific binding was plotted against the logarithm of the test compound concentration and fitted by a variable slope logistic regression.
(§4) Table S3: HPLC parameters of the methods for the analysis of pirenzepine, telenzepine and their rearrangement products. LOD = limit of
(§5) detection, LOL = limit of linearityi
(§6) Stably transfected CHO-K1 cells containing human muscarinic receptors M1-M5 were purchased from Missouri
(§7) University of Science and Technology cDNA Resource Center (Cell Catalog#: CEM1000000, CEM2000000,
(§8) Limited) supplemented with 10% FBS (Gibco, Life Tec hnologies Limited) and 250 µg/mL Geneticin® (G418, Thermo
(§9) Fisher) at 37 °C and 5% CO2 in a cell incubator. Cells were passaged using Gibco Trypsin -EDTA (0.05%). A solution of […]

Data set [6] has as its target T2, human mAChR M2 (Homo sapiens, UniProt P08172).
T2 construct: host or cells: CHO-K1 (stably transfected), membrane preparation
T2 sequence (P08172 1-466): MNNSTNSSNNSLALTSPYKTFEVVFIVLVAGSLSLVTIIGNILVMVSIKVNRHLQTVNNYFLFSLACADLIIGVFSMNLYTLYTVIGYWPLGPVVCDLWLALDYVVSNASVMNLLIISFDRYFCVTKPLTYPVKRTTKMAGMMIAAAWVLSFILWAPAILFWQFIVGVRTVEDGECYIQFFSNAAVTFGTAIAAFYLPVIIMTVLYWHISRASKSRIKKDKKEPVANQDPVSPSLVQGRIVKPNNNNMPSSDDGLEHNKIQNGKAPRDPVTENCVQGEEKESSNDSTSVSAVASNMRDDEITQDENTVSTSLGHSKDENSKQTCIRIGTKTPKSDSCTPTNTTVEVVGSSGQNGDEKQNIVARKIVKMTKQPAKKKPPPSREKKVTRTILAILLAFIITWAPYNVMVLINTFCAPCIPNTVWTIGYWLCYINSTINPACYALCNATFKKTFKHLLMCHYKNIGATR
Description: Competitive [3H]NMS radioligand binding assay on CHO cell membranes, mAChR M2. The following applies: CHO cell membranes with human receptor, 1.5 h at 20 °C, this work. As for the experimental part: as §1, §2, §3, §4, §5, §6, §7, §8, §9

Data set [7] addresses T3, human mAChR M1 (Homo sapiens, UniProt P11229).
T3 construct: host or cells: CHO-K1 (stably transfected), membrane preparation
T3 sequence (P11229 1-460): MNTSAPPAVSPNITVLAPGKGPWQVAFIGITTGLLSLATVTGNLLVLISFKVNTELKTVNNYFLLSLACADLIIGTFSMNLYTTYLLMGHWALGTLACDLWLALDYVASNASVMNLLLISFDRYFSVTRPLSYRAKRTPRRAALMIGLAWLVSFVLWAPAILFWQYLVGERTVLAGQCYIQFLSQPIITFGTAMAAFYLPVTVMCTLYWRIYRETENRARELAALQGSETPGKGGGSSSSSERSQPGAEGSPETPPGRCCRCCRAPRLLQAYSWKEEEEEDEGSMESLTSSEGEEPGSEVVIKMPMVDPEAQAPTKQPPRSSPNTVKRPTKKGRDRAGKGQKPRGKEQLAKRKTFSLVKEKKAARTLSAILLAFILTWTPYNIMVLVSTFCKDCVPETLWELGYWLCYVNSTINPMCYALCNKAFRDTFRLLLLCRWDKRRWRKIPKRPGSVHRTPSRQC
The data set can be described thus: Competitive [3H]NMS radioligand binding assay on CHO cell membranes, mAChR M1. To be noted: for Ki: [3H]NMS 0.2 nM, CHO cell membranes with human receptor, 1.5 h at 20 °C, this work. As for the experimental part: as §1, §2
as §3, with “solution.” for “solution. The concentration of the radioligand solution was chosen as 2 nM, 3 nM, 8 nM, 2 nM and 10 nM for M1-M5, respectively.”
as §4, §5, §6, §7, §8
Fisher) at 37 °C and 5% CO2 in a cell incubator. Cells were passaged using Gibco Trypsin -EDTA (0.05%). A solution of
P2714-1BTL, Sigma-Aldrich in 10 mL water was used as protease inhibitor cocktail.

Data set [8] has as its target T4, human mAChR M4 (Homo sapiens, UniProt P08173).
T4 construct: host or cells: CHO-K1 (stably transfected), membrane preparation
T4 sequence (P08173 1-479): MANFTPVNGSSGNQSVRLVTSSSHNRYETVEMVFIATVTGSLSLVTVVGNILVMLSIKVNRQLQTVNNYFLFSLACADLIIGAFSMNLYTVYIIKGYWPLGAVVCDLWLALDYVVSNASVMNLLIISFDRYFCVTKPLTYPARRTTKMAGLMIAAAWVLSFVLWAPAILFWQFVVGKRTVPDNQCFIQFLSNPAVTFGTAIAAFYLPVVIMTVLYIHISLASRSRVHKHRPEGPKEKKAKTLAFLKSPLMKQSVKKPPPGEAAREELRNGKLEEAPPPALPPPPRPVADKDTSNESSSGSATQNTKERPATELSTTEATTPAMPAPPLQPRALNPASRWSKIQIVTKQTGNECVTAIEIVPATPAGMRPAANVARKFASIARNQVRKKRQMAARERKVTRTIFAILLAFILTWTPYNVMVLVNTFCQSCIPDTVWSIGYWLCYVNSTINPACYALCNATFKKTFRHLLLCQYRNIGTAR
Description: Competitive [3H]NMS radioligand binding assay on CHO cell membranes, mAChR M4. To be noted: CHO cell membranes with human receptor, 1.5 h at 20 °C, this work. As for the experimental part:
as §1, §2, §3, §4, §5, §6, §7, §8, §9

Data set [9] deals with T5, human mAChR M5 (Homo sapiens, UniProt P08912).
T5 construct: host or cells: CHO-K1 (stably transfected), membrane preparation
T5 sequence (P08912 1-532): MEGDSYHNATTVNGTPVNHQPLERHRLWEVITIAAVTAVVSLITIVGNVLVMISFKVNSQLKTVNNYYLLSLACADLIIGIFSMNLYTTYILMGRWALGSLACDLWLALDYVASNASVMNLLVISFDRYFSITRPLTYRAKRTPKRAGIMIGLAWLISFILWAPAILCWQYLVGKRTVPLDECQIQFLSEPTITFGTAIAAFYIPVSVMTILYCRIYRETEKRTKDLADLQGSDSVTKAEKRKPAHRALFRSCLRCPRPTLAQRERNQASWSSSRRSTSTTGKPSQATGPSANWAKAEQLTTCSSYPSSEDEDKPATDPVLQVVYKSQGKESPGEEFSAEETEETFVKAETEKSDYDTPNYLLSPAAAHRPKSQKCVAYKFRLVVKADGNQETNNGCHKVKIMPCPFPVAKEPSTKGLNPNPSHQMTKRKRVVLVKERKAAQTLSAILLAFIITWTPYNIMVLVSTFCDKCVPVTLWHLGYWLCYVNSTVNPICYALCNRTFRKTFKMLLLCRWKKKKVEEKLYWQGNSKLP
The data set can be described thus: Competitive [3H]NMS radioligand binding assay on CHO cell membranes, mAChR M5. The following applies: CHO cell membranes with human receptor, 1.5 h at 20 °C, this work. The protocol: as §1, §2, §3, §4, §5, §6, §7, §8, §9

The target in data set [10] is mAChR M1. To be noted: read-out: Ki mAChR M1; 90 min at 37 °C, transfected A9L cells; cited from earlier work.
Data set [11] has as its target mAChR M2. The following applies: read-out: Ki mAChR M2; 90 min at 37 °C, membranes from rat heart tissue; cited from earlier work.
Data set [12] concerns the target mAChR M4. The following applies: read-out: Ki mAChR M4; 90 min at 37 °C, NG108-15 cells; cited from earlier work.
For data set [13], the target named is mAChR M3. Further details: method as in PMID 2066986. To be noted: 90 min at 37 °C, transfected A9L cells; cited from earlier work.

“Also recorded” adds a separate entry of the source. Where a name gives a salt, the structure may show the parent alone. Where only a bound is given, the exact number is not on record here.

T1 sequence (P20309 whole entry): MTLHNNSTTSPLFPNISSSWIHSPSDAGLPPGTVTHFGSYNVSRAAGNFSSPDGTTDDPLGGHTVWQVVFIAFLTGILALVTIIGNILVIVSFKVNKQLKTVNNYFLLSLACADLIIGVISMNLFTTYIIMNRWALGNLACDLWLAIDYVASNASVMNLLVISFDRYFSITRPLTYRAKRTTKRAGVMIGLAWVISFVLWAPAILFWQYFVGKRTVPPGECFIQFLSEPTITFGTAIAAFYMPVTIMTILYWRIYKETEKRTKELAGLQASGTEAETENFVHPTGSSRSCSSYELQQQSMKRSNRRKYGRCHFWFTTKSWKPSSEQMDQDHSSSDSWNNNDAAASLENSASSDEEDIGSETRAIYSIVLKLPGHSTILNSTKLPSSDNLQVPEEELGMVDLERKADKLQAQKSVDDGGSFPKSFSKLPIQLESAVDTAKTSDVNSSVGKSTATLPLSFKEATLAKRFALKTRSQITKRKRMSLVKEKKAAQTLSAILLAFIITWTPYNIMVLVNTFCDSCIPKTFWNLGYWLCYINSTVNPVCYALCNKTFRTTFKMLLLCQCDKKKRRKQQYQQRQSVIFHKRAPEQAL

In general, half-life refers to the time in which the quantity being followed falls by half. Higher therefore signals slow loss. For `CN1CCN(CC(=O)N2c3ccccc3C(=O)Nc3cccnc32)CC1` [Compound 2, Pirenzepine dihydrochloride], the “Formation of 4 from 2” value in data set [1] (0.1 M aqueous HCl at 37 °C, 55 °C or 75 °C overnight) was less than 1%. The “Activation energy of the rearrangement” value in data set [1] (6 M HCl, from slope of Arrhenius plot) is listed as 83.2 ± 1.9 kJ/mol. The half-life at 50 µg/mL in data set [1] (6 M HCl, 37 °C) was found to be 830 ± 30 min; in data set [1] (6 M HCl, 55 °C) it was 117 ± 16 min; in [1] (6 M HCl, 75 °C) it was 25 ± 2 min. Also, in data set [1] (strong excess of aqueous HCl (6 M), pseudo first order kinetic), the “Conversion of 2 to 4” value is “quantitative conversion”. For the same compound, the “Formation of 4 on heating the solid” value in data set [2] is on record as “did not result in formation of 4 in detectable amounts”. Further, the “Effect on cell viability (MTT assay)” value in data set [3] is given as “No cytotoxic effect”. Also, the “Isomerization of 2 to 4 in simulated gastric fluid” value in [4] is “neither simulated gastric fluid (0.08 M aq. HCl, 1 g/L NaCl and 1.6 g/L pepsin) nor equimolar aqueous HCl solution caused detectable isomerization”.

Usually Ki stands for the dissociation constant of the complex between target and ligand, obtained from inhibition or displacement. Regarding `CN1CCN(Cc2nc3cccnc3n2-c2ccccc2C(=O)O)CC1.Cl.Cl` [Compound 4, 2-(2-((4-methylpiperazin-1-yl)methyl)-3H-imidazo[4,5-b]pyridin-3-yl)benzoic acid dihydrochloride], the Ki in data set [5] came to 7 ± 2 µM; in data set [6], 47 ± 19 µM; in data set [7] it was 600 ± 20 nM; in data set [8], 1200 ± 200 nM; in data set [9], 360 ± 20 nM. Besides, the “Effect on cell viability (MTT assay)” value in data set [3] is given as “No cytotoxic effect; also recorded: without measurable effect on cell viability”.

For `Cc1scc(C(=O)O)c1-n1c(CN2CCN(C)CC2)nc2ccccc21` [Compound 5, 5-methyl-4-(2-((4-methylpiperazin-1-yl)methyl)-1H-benzo[d]imidazol-1-yl)thiophene-3-carboxylic acid], the Ki in [5] is 8 ± 3 µM; in data set [6] it was 10.6 ± 1.5 µM; in data set [7] it was 1400 ± 300 nM; in [8], 2000 ± 400 nM; in data set [9] it was 4100 ± 200 nM. Besides, the “Effect on cell viability (MTT assay)” value in data set [3] is given as “No cytotoxic effect; also recorded: without measurable effect on cell viability”.

With `Cc1scc2c1N(C(=O)CN1CCN(C)CC1)c1ccccc1NC2=O` [telenzepine 2HCl, Telenzepine dihydrochloride], the Ki in data set [10] is 1.8 nM; in data set [11], 50.3 nM; in data set [5] it was 0.012 ± 0.002 µM; in [6] it was 0.026 ± 0.005 µM; in data set [7], 1.8 ± 0.8 nM; in data set [8] it was 29 ± 16 nM. Also, the Ki in data set [12] was 17.4 nM; in data set [9], 16 ± 9 nM; in data set [13], 6.9 nM. Also, the “Effect on cell viability (MTT assay)” value in data set [3] is “No cytotoxic effect”. In addition, in data set [7] (rearranged product (4 or 5) versus parent drug), the “Loss of affinity towards M1 on rearrangement (affinity constant of rearranged product vs parent)” value was determined as 780 fold.

(Values after article PMC8642400, “Unexpected scaffold rearrangement product of pirenzepine found in commercial samples” (Scientific Reports, 2021).)
